Test results published in patent US7812116B2, “Immunogenic peptides” (Rush University Medical Center, priority 2003, dated 2010).

Experiments:
HLA-A2.1 = HLA-A2.1 (Homo sapiens, UniProt P04439, D140Y/D185E/D98H/E176V/E277Q/G131W/G231S/I119V/I121R/I166T/I218V/L300P/L318F/N151K/N90K/P208A/P217A/Q86G/Q94H/R138H/R169H/T345S); assay: Peptide/HLA-A2.1 complex stability on T2 cells under Brefeldin A treatment; format: binding
dendritic cells = assay: Phenotypic analysis of mature dendritic (mDC) and T2 antigen-presenting cells; format: cell-based, human; settings: DCs from CD14+ monocytes, maturation factor during last three days of culture
Protocol: Immature DCs can be generated according to modified protocols of Romani N, et al., J Exp Med 180, pp. 83-89, 1994; and Bakker et al., Cancer Res 55, pp. 5330-5334, 1995. Briefly, fresh or frozen/thawed CD14+cells are cultured in RPMI 1640 medium (Gibco-Life Technologies, Gaithersburg, Md.) supplemented with 10% FCS, 1,000 U/ml GM-CSF and 1,000 U/ml IL-4. The cell cultures are fed with fresh medium and GM-CSF and IL-4 every other day and cell differentiation is monitored by light microscopy. On day 7, the cultures are supplemented with different combinations of DC maturation factors such as lipopolysaccharide (100 U/ml), TNF-α (10 ng/ml), or IFN-α (1,000 U/ml) plus TNF-α (10 ng/ml). After three days of incubation, mature DCs (mDC) are harvested and their phenotypes are evaluated by flow cytometry. The maturation factor(s) yielding optimal DC maturation are determined and used to generate mDCs for peptide pulsing in upcoming studies. In this example, immature DCs obtained by the culture of CD14+monocytes with GM-CSF (1,000 U/ml) and IL-4 (1,000 U/ml) are induced to undergo maturation by incubation with LPS (100 Units/ml), TNF-α (10 ng/ml) or TNF-α (10 ng/ml)+IFN-γ (50 ng/ml) during the final three days of the culture period. […] HLA-DR and no expression of CD3 or CD14 (data not shown). The highest up-regulation of the co-immunostimulatory (CD80 and CD86) and HLA-A2.1 MHC class I molecules is detected on DCs treated with TNF-α+IFN-γ (Table 5). […] The phenotype of the T2 cell line is evaluated to determine its potential for use as an alternative type of antigen presenting cell. […] The expression of CD80 is higher on T2 cells compared to mDCs.

Row | Substance | HLA-A2.1 binding and stability in words (HLA-A2.1) | CD80 mean channel fluorescence (MCF) (dendritic cells) | CD86 mean channel fluorescence (MCF) (dendritic cells) | HLA-A2.1 mean channel fluorescence (MCF) (dendritic cells)
1 | LLFLTPMEV (listed as Homo sapiens) [SEQ ID NO: 3, CD19 9-mer fragment] | good and prolonged stable binding | – | – | –
2 | lipopolysaccharide [LPS, reference compound] | – | 71 | 40 | 316
3 | TLAYLIFCL (listed as Homo sapiens) [SEQ ID NO: 2, CD19 9-mer fragment] | good and prolonged stable binding | – | – | –
4 | TNF-α | – | 107 | 96 | 475
5 | SLFLGILSV (listed as Homo sapiens) [SEQ ID NO: 6, CD20 9-mer fragment] | good and prolonged stable binding | – | – | –
